Results on 40 compounds are retold here after ChEMBL document CHEMBL2311253, “Isatin replacements applied to the highly selective, muscarinic M1 PAM ML137: continued optimization of an MLPCN probe molecule” (Bioorg Med Chem Lett, 2013).

Assay type in all cases: functional
The target in experiment [1] is T1, Muscarinic acetylcholine receptor M1 (Homo sapiens) (UniProt P11229).
T1 sequence (whole entry): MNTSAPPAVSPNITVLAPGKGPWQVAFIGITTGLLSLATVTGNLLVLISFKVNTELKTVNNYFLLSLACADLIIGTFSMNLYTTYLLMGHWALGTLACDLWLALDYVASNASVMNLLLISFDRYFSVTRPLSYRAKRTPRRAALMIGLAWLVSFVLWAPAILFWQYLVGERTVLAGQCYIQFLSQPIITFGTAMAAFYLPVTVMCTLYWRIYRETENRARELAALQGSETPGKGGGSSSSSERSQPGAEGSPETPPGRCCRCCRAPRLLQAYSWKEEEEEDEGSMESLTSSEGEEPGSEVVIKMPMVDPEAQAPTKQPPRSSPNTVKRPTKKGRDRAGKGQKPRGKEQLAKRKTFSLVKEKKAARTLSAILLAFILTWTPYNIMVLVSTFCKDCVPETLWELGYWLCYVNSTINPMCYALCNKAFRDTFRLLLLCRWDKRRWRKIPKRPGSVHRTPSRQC
As to the kind of experiment: Positive allosteric modulator activity at human muscarinic M1 receptor up to 30 uM by calcium mobilization assay.

For experiment [2], the target named is T2, Muscarinic acetylcholine receptor M1 (Homo sapiens, UniProt P11229).
T2 sequence (P11229 whole entry): T1 sequence (whole entry)
As to the kind of experiment: Positive allosteric modulator activity at human muscarinic M1 receptor by calcium mobilization assay. For orientation: Calcium assays in cells follow changes in intracellular calcium, usually with a dye or a luminescent sensor.

The target in experiment [3] is T1, Muscarinic acetylcholine receptor M1 (Homo sapiens). The experiment can be described thus: Positive allosteric modulator activity at human muscarinic M1 receptor relative to acetylcholine by calcium mobilization assay. Also on record: concentration or dose not given beside the values.
Experiment [4] has the same target. As to the kind of experiment: Positive allosteric modulator activity at human muscarinic M1 receptor assessed as fold shift of acetylcholine concentration curve to the left at 30 uM by calcium mobilization assay relative to untreated acetylcholine control.
Experiment [5] addresses T3, Muscarinic acetylcholine receptor M4 (Homo sapiens) (UniProt P08173).
T3 sequence (whole entry): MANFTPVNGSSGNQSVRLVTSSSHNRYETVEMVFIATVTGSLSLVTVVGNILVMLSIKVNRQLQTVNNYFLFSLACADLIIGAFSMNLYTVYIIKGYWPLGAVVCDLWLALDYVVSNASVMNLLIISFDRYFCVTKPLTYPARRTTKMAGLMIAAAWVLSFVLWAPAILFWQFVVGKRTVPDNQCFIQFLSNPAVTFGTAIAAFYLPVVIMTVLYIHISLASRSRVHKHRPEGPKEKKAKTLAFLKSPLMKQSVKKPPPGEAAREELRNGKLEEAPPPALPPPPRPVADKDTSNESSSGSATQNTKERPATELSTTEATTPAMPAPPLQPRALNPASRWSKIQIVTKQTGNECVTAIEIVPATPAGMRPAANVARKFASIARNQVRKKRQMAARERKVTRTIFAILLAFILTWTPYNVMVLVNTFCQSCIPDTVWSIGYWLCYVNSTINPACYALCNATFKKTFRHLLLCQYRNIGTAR
The experiment can be described thus: Positive allosteric modulator activity at human muscarinic M4 receptor by calcium mobilization assay.

By EC50 is commonly meant the concentration giving half of the maximal effect.

Calls of active or inactive are those of the source. The calls are words filed in the database; no cut-off is given here.

`O=C1N(Cc2ccc(-c3cn[nH]c3)cc2F)c2ccccc2C1(O)C(F)(F)F` (racemic): the result in experiment [1] was inactive.

Consider `Cn1cc(-c2ccc(CN3C(=O)C(F)(C(F)(F)F)c4ccccc43)c(F)c2)cn1` (racemic), for which the EC50 in experiment [2] is above 10 µM. Besides, the Activity in experiment [3] amounted to 25%.

Turning to `Cn1cc(-c2ccc(CN3C(=O)Cc4ccccc43)c(F)c2)cn1`, the EC50 in experiment [2] stood at 2.4 µM. The fold change (FC) in experiment [4] came to 27.2. Also, the Activity in experiment [3] was determined as 64%. Besides, in experiment [5], the result was Active.

Regarding `Cn1cc(-c2ccc(CN3C(=O)C(N)c4ccccc43)c(F)c2)cn1` (racemic), the 50% effective concentration (EC50) in experiment [2] came out at 1.3 µM. Also, the Activity in experiment [3] turned out to be 50%.

Consider `Cn1cc(-c2ccc(CN3C(=O)CCc4ccccc43)c(F)c2)cn1`, for which, in experiment [2], the concentration giving a half-maximal response (EC50) was found to be 5.6 µM. For the same compound, the Activity in experiment [3] worked out at 44%.

As for `CCn1cc(-c2ccc(CN3C(=O)C(O)(C(F)(F)F)c4ccccc43)c(F)c2)cn1` (racemic), the half-maximal effective concentration (EC50) in experiment [2] was 3.3 µM. Further, in experiment [3], the Activity was 37%.

For `Cn1cc(-c2ccc(CN3C(=O)OCc4ccccc43)c(F)c2)cn1`, the EC50 in experiment [2] is above 10 µM. In addition, the Activity in experiment [3] is 62%.

With `Cn1cc(-c2ccc(CN3C(=O)C(O)(CF)c4ccccc43)c(F)c2)cn1` (racemic), the EC50 in experiment [2] was above 10 µM. The fold change (FC) in experiment [4] amounted to 8. Besides, the Activity in experiment [3] was found to be 59%.

Regarding `Cn1cc(-c2ccc(CN3C(=O)COc4ccccc43)c(F)c2)cn1`, the concentration giving a half-maximal response (EC50) in experiment [2] stood at 5.2 µM. For the same compound, the Activity in experiment [3] amounted to 52%.

With `Cn1cc(-c2ccc(CN3C(=O)NCc4ccccc43)c(F)c2)cn1`, in experiment [2], the concentration giving a half-maximal response (EC50) is above 10 µM. Besides, the Activity in experiment [3] was 53%.

In the case of `Cn1cc(-c2ccc(CN3C(=O)C(O)(C(F)(F)F)c4ccccc43)c(F)c2)cn1` (centres undefined), the result in experiment [1] was inactive.

Consider `Cn1cc(-c2ccc(CN3C(=O)CCCc4ccccc43)c(F)c2)cn1`, for which the result in experiment [1] was inactive.

As for `Cn1cc(-c2ccc(CN3C(=O)C(=O)c4ccccc43)c(F)c2)cn1`, the EC50 in experiment [2] is 0.6 µM. Moreover, the fold change (FC) in experiment [4] worked out at 2.7. In addition, in experiment [3], the Activity was 45%.

For the compound `Cn1cc(-c2ccc(CN3CC(c4ccccc4)CC3=O)c(F)c2)cn1` (centres undefined), in experiment [1], the outcome was inactive.

`Cn1cc(-c2ccc(CN3C(=O)C(C)(N)c4ccccc43)c(F)c2)cn1` (racemic): the 50% effective concentration (EC50) in experiment [2] is above 10 µM. Also, in experiment [3], the Activity is 28%.

Regarding `Cn1cc(-c2ccc(CN3CCSc4ccccc43)c(F)c2)cn1`, the outcome in experiment [1] was inactive.

For `Cn1cc(-c2ccc(Cn3c4ccccc4c4cccnc43)c(F)c2)cn1`, the result in experiment [1] was inactive.

As for `COC1(C(F)(F)F)C(=O)N(Cc2ccc(-c3cnn(C)c3)cc2F)c2ccccc21` (racemic), the result in experiment [1] was inactive.

As to `Cn1cc(-c2ccc(CN3C(=O)C(F)(F)c4ccccc43)c(F)c2)cn1`, in experiment [1], the outcome was inactive.

On to `COc1nc2ccccc2n1Cc1ccc(-c2cnn(C)c2)cc1F`, for which the outcome in experiment [1] was inactive.

Take `CC(C)n1cc(-c2ccc(CN3C(=O)C(O)(C(F)(F)F)c4ccccc43)c(F)c2)cn1` (racemic): in experiment [1], the result was inactive.

Regarding `Cn1cc(-c2ccc(CN3C(=O)C[S+]([O-])c4ccccc43)c(F)c2)cn1` (centres undefined), in experiment [2], the 50% effective concentration (EC50) is above 10 µM. Further, the Activity in experiment [3] is 46%.

In the case of `CC(=O)N(Cc1ccc(-c2cnn(C)c2)cc1F)c1ccccc1`, the result in experiment [1] was inactive.

On to `CCCn1cc(-c2ccc(CN3C(=O)C(O)(C(F)(F)F)c4ccccc43)c(F)c2)cn1` (racemic), for which the result in experiment [1] was inactive.

As for `Cn1cc(-c2ccc(Cn3c4ccccc4c4nccnc43)c(F)c2)cn1`, in experiment [1], the outcome was inactive.

For the compound `Cn1cc(-c2ccc(Cn3ccccc3=O)c(F)c2)cn1`, the outcome in experiment [1] was inactive.

`Cn1cc(-c2ccc(CN3C(=O)C(O)(C(F)(F)F)c4ccccc43)c(F)c2)cn1` (stereo in doubt; 23h): in experiment [4], the fold change (FC) was 12. In experiment [3], the Activity was determined as 57%.

Take `Cn1cc(-c2ccc(CN3C(=O)C(O)(C(F)(F)F)c4ccccc43)c(F)c2)cn1` (racemic): in experiment [4], the fold change (FC) is 7.4. The Activity in experiment [3] was found to be 51%.

Regarding `Cn1cc(-c2ccc(CN3c4ccccc4CS3(=O)=O)c(F)c2)cn1`, the EC50 in experiment [2] was above 10 µM. The Activity in experiment [3] came to 41%.

Consider `Cn1cc(-c2ccc(CN3C(=O)C(O)(C(F)(F)F)c4ccccc43)cc2)cn1` (racemic), for which the EC50 in experiment [2] is 4 µM. The fold change (FC) in experiment [4] stood at 15.2. The Activity in experiment [3] is 66%.

`Cn1cc(-c2ccc(CN3C(=O)CS(=O)(=O)c4ccccc43)c(F)c2)cn1`: the 50% effective concentration (EC50) in experiment [2] was above 10 µM. Also, the Activity in experiment [3] was 36%.

With `CN(C)C1(C)C(=O)N(Cc2ccc(-c3cnn(C)c3)cc2)c2ccccc21` (racemic), the EC50 in experiment [2] was above 10 µM. In addition, the Activity in experiment [3] is 48%.

As to `Cn1cc(-c2ccc(Cn3c(=O)ccc4ccccc43)c(F)c2)cn1`, the 50% effective concentration (EC50) in experiment [2] was above 10 µM. Further, the Activity in experiment [3] was determined as 51%.

With `Cn1cc(-c2ccc(CN3C(=O)CSc4ccccc43)c(F)c2)cn1`, in experiment [2], the EC50 stood at 3.2 µM. The Activity in experiment [3] was 30%.

On to `Cn1cc(-c2ccc(CN3C(=O)C(O)(C(F)(F)F)c4ccccc43)c(Cl)c2)cn1` (racemic), for which the EC50 in experiment [2] was above 10 µM. In addition, the Activity in experiment [3] was determined as 29%.

`Cn1cc(-c2ccc(CN3C(=O)C(C)(O)c4ccccc43)c(F)c2)cn1` (racemic): the EC50 in experiment [2] is above 10 µM. Moreover, in experiment [4], the fold change (FC) is 6.5. In experiment [3], the Activity came out at 49%.

For `Cn1cc(-c2ccc(Cn3c(=O)[nH]c4ccccc43)c(F)c2)cn1`, the result in experiment [1] was inactive.

Consider `CC1C(=O)N(Cc2ccc(-c3cnn(C)c3)cc2F)c2ccccc21` (racemic), for which the EC50 in experiment [2] was above 10 µM. Besides, the Activity in experiment [3] is 53%.

Turning to `Cn1cc(-c2ccc(CN3CCc4ccccc43)c(F)c2)cn1`, the outcome in experiment [1] was inactive.

As to `Cn1cc(-c2ccc(CN3C(=O)c4cccc5cccc3c45)c(F)c2)cn1`, the outcome in experiment [1] was inactive.
